Patent US20060233887A1, “Bioactive material for use in stimulating vascularization” (The North West London Hospitals N H S Trust, priority 2003, published 2006)

System: human endothelial cells
Test: In vitro angiogenesis assay (Angiogenesis Assay Kit, CD31 staining, AngioSys image analysis)
Format: cell-based
Conditions: 11 days
Text: To evaluate the angiogenic growth factors secreted from fibroblasts in response to 45S5 Bioglass®, a commercial angiogenesis assay (Angiogenesis Assay Kit; TCS CellWorks Ltd) was used (Donovan D et al. Comparison of three in vitro human ‘angiogenesis’ assays with capillaries formed in vivo. Angiogenesis. 2001;4:113-121; Drinkwater S L et al Effect of venous ulcer exudates on angiogenesis in vitro. Br J Surg. 2002;89:709-713; Sengupta S et al. Thymidine phosphorylase induces angiogenesis in vivo and in vitro: an evaluation of possible mechanisms. Br J Pharmacol. 2003;139:219-231). The assay was performed according to the manufacturer's instructions.
In brief, on the day of delivery from the supplier, the medium in the culture plate was replaced with optimised medium (TCS CellWorks Ltd; supplied with the kit) alone (OM); OM:conditioned medium (medium collected from human colonic fibroblasts (CCD-18co) cultured on 0 g/cm^2 or 0.3125 mg/cm^2 45S5 Bioglass® for 72 hours) at 1:1 v/v; OM containing 2 ng/ml VEGF (positive control); or OM containing 20 μM suramin (negative control). Each treatment condition was repeated in quadruplicate. The culture medium was removed on days 4, 7 and 9 of the experiment and replaced with fresh pre-equilibrated (37° C. and 5% CO2) optimised medium plus each treatment. After 11 days, the endothelial cells were stained for CD31 (TCS CellWorks Ltd) using indirect immunocytochemistry as described in the manufacturer's instructions and allowed to air-dry. Each well was divided into quadrants on the underside of the plate. Photomicrographs of each quadrant were recorded with a Nikon Eclipse TE2000-S inverted photomicroscope fitted with a digital camera using a 4× objective lens. Image analysis software (AngioSys, Foster Findlay Associates, Newcastle Upon Tyne, UK) was used for automated scoring of the assay, providing quantitative measurements of endothelial tubule development (total vessel number, total tubule length and number of junctions), as previously described (Drinkwater S L et al Effect of venous ulcer exudates on angiogenesis in vitro. Br J Surg. 2002;89:709-713; Sengupta S et al. Thymidine phosphorylase induces angiogenesis in vivo and in vitro: an evaluation of possible mechanisms. Br J Pharmacol. 2003; 139:219-231).

[1] = 20 μM suramin, vs control endothelial cells

| Compound | number of endothelial tubules [1] | number of tubule junctions [1] | total tubule length [1] | number of anastomosed endothelial tubules (micrographs) (2 ng/ml VEGF, vs optimised medium alone) | endothelial tubule development (tubules, tubule length, junctions) (2 ng/ml VEGF, positive control) |
| --- | --- | --- | --- | --- | --- |
| Cc1ccc(C(=O)Nc2ccc(S(=O)(=O)O)c3cc(S(=O)(=O)O)cc(S(=O)(=O)O)c23)cc1NC(=O)c1cccc(NC(=O)Nc2cccc(C(=O)Nc3cc(C(=O)Nc4ccc(S(=O)(=O)O)c5cc(S(=O)(=O)O)cc(S(=O)(=O)O)c45)ccc3C)c2)c1 [suramin] | reduced | reduced | reduced | – | – |
| VEGF | – | – | – | visible increase | Significant increases |
